Assay results from ChEMBL document CHEMBL4152303, “Structure-activity relationships of imidazothiazinones and analogs as antagonists of the cannabinoid-activated orphan G protein-coupled receptor GPR18” (Eur J Med Chem, 2018).

Key:
[1] = biological target: T1, N-arachidonyl glycine receptor (Homo sapiens, UniProt Q14330); experiment: Agonist activity at recombinant full length human GPR18 expressed in CHO cells assessed as forskolin-stimulated cAMP accumulation after 10 mins by enzyme immunoassay; assay type: functional, cell-based
T1 sequence (Q14330 whole entry): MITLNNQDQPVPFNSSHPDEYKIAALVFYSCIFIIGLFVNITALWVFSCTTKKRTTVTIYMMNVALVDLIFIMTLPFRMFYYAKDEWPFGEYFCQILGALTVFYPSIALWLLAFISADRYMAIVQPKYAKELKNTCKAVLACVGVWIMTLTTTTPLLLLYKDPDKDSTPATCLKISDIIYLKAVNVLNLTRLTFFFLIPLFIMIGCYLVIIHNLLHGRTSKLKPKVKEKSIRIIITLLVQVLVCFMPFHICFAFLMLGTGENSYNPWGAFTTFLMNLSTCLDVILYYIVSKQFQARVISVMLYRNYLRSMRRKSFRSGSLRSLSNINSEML

[2] = biological target: T1, N-arachidonyl glycine receptor; experiment: Agonist activity at recombinant human GPR18 expressed in HEK293 cells assessed as induction of p44/42 MAPK phosphorylation after 5 mins by Western blot analysis; assay type: functional, cell-based
Cannabinoid receptor 1 = Cannabinoid receptor 1 (Homo sapiens, UniProt P21554); experiment: Displacement of [3H]CP55940 from recombinant human CB1 receptor expressed in CHO cell membranes after 2 hrs by liquid scintillation counting method; conditions: for inhibition: concentration not given here
Chain of Cannabinoid receptor 1 (P21554 whole entry): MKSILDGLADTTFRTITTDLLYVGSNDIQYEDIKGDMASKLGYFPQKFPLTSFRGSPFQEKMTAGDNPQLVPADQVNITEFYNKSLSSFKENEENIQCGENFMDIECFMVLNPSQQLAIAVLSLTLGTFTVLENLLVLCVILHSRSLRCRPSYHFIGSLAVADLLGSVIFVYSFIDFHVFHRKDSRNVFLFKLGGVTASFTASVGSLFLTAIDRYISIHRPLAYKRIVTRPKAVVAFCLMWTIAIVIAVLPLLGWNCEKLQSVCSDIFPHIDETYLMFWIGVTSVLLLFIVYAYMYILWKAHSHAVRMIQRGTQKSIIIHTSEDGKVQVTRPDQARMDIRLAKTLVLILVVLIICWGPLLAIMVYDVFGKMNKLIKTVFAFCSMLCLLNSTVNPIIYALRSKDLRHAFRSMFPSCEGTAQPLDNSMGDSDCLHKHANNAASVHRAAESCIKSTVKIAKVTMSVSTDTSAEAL

Cannabinoid receptor 2 = Cannabinoid receptor 2 (Homo sapiens, UniProt P34972); experiment: Displacement of [3H]CP55940 from recombinant human CB2 receptor expressed in CHO cell membranes after 2 hrs by liquid scintillation counting method; conditions: for inhibition: concentration not given here
Chain of Cannabinoid receptor 2 (P34972 whole entry): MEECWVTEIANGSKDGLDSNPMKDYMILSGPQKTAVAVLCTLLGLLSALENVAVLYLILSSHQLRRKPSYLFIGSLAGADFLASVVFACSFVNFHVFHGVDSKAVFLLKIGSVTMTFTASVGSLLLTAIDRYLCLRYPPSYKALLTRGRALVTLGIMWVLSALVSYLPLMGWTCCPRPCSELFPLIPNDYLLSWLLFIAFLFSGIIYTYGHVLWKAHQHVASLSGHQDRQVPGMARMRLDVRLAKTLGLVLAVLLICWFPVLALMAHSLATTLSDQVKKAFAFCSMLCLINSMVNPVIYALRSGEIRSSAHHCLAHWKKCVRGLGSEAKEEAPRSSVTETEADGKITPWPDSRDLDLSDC

[3] = biological target: T2, G-protein coupled receptor 55 (Homo sapiens, UniProt Q9Y2T6); experiment: Agonist activity at recombinant human GPR55 expressed in CHO cells assessed as increase in beta-arrestin recruitment incubated for 60 mins measured for 1 sec by luminescence assay; assay type: functional, cell-based
T2 sequence (Q9Y2T6 whole entry): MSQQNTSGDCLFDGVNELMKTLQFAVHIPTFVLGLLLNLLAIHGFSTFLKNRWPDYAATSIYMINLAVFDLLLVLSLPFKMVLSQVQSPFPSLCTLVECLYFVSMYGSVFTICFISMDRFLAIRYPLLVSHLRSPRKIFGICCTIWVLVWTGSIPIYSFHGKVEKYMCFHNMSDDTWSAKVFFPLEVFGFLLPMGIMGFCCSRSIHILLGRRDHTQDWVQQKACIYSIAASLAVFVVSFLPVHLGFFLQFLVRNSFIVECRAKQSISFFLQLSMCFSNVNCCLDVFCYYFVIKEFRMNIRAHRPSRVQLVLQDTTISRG

[4] = biological target: T1, N-arachidonyl glycine receptor; experiment: (§1) Agonist activity at recombinant human GPR18 expressed in CHO cells assessed as increase in beta-arrestin recruitment incubated for 60 mins measured for 1 sec by luminescence assay; assay type: functional, cell-based
[5] = biological target: T3, N-arachidonyl glycine receptor (Homo sapiens) (UniProt Q14330); experiment: as §1; assay type: functional, cell-based
T3 sequence (whole entry): T1 sequence (Q14330 whole entry)

[6] = biological target: T1, N-arachidonyl glycine receptor; experiment: (§2) Antagonist activity at recombinant human GPR18 expressed in CHO cells assessed as inhibition of delta9-THC-induced beta-arrestin recruitment preincubated for 60 mins followed by delta9-THC addition for 90 mins measured for 1 sec by luminescence assay; assay type: functional, cell-based
[7] = biological target: T3, N-arachidonyl glycine receptor (Homo sapiens); experiment: as §2; assay type: functional, cell-based
[8] = biological target: T2, G-protein coupled receptor 55; experiment: Antagonist activity at recombinant human GPR55 expressed in CHO cells assessed as inhibition of lysophosphatidylinositol-induced beta-arrestin recruitment preincubated for 60 mins followed by lysophosphatidylinositol addition for 90 mins measured for 1 sec by luminescence assay; assay type: functional, cell-based
[9] = biological target: T3, N-arachidonyl glycine receptor (Homo sapiens); experiment: Competitive antagonist activity at recombinant human GPR18 expressed in CHO cells assessed as inhibition of delta9-THC-induced beta-arrestin recruitment preincubated for 60 mins followed by delta9-THC addition for 90 mins measured for 1 sec by luminescence assay; assay type: functional, cell-based

| Compound | EC50 [1] [µM] | EC50 [2] [µM] | Ki (Cannabinoid receptor 1) [µM] | inhibition (Cannabinoid receptor 1) [%] | Ki (Cannabinoid receptor 2) [µM] | inhibition (Cannabinoid receptor 2) [%] | %max [3] [%] | EC50 [3] [µM] | EC50 [4] [µM] | %max [5] [%] | IC50 [6] [µM] | Imax [7] [%] | IC50 [8] [µM] | Imax [8] [%] | Imax (Cannabinoid receptor 2) [%] | inhibition [7] [%] | Imax (Cannabinoid receptor 1) [%] | Kb [9] [µM] | pKb [9] |
| --- | --- | --- | --- | --- | --- | --- | --- | --- | --- | --- | --- | --- | --- | --- | --- | --- | --- | --- | --- |
| CCCCC/C=C\C/C=C\C/C=C\C/C=C\CCCC(=O)NCC(=O)O [ARACHIDONOYL GLYCINE] | 0.02 | 0.044 | – | – | – | – | – | – | – | – | – | – | – | – | – | – | – | – | – |
| O=C1/C(=C/c2cccc(OCCc3ccccc3)c2)N=C2SCCCN12 | – | – | > 10 | 24 | > 10 | 19 | -42 | > 10 | > 10 | 8 | > 10 | 16 | 29.3 | 130 | – | – | – | – | – |
| O=C1NC(SCc2ccc(Cl)cc2)=N/C1=C\c1cccc(OCc2ccc(Cl)cc2)c1 | – | – | > 10 | 36 | > 10 | 30 | -10 | > 10 | > 10 | 5 | > 10 | 35 | > 10 | 41 | – | – | – | – | – |
| O=C1NC(=S)S/C1=C\c1cccc(OCc2ccc(Cl)cc2)c1 | – | – | > 10 | 47 | > 10 | 26 | 29 | > 10 | > 10 | -38 | > 10 | 22 | > 10 | -18 | – | – | – | – | – |
| O=C1/C(=C/c2cccc(OCCCc3ccccc3)c2)N=C2SCCCN12 | – | – | > 10 | 11 | > 10 | 23 | -49 | > 10 | > 10 | -30 | 1.49 | 136 | 6.04 | 132 | – | – | – | – | – |
| O=C1/C(=C/c2cccc(OCc3ccc(Br)cc3)c2)N=C2SCCCN12 | – | – | > 10 | 4 | > 10 | 4 | -19 | > 10 | > 10 | -9 | 1.73 | 74 | 45.8 | 116 | – | – | – | – | – |
| CSC1=NC(=O)/C(=C/c2cccc(OCc3ccc(Cl)cc3)c2)N1 | – | – | 2.21 | – | 0.591 | – | 18 | > 10 | > 10 | 31 | 13.8 | 71 | > 10 | 47 | 73 | – | – | – | – |
| Cc1cccc(C)c1OCCCCCCOc1cccc(/C=C2\N=C3SCCCN3C2=O)c1 | – | – | > 10 | 13 | > 10 | 46 | 33 | > 10 | > 10 | 3 | 10 | – | > 10 | 32 | – | 55 | – | – | – |
| O=C1NC(SCc2ccccc2)=N/C1=C\c1cccc(OCc2ccc(Cl)cc2)c1 | – | – | > 10 | 11 | > 10 | 46 | 21 | > 10 | > 10 | -17 | > 10 | 3 | > 10 | 17 | – | – | – | – | – |
| O=C1NC(=O)/C(=C/c2cccc(OCc3ccc(Cl)cc3)c2)S1 | – | – | 5.04 | – | > 10 | 41 | 22 | > 10 | > 10 | -1 | > 10 | -10 | > 10 | -1 | – | – | 67 | – | – |
| O=C1NC(=S)N/C1=C\c1cccc(OCc2ccc(Cl)cc2)c1 | – | – | > 10 | 30 | > 10 | 19 | 5 | > 10 | > 10 | -14 | 33 | 165 | 32.4 | 118 | – | – | – | – | – |
| Cc1ccc(CSC2=N/C(=C\c3cccc(OCc4ccc(Cl)cc4)c3)C(=O)N2)cc1 | – | – | > 10 | 38 | > 10 | 22 | -12 | > 10 | > 10 | 4 | > 10 | 0 | > 10 | 48 | – | – | – | – | – |
| O=C1/C(=C/c2cccc(OCc3ccc(F)cc3)c2)N=C2SCCCN12 | – | – | > 10 | 35 | > 10 | 46 | -30 | > 10 | > 10 | 6 | > 10 | 3 | 4.22 | 149 | – | – | – | – | – |
| CN1C(=N)NC(=O)/C1=C/c1cccc(OCc2ccc(Cl)cc2)c1 | – | – | > 10 | 43 | 22.8 | – | 22 | > 10 | > 10 | 6 | > 10 | 4 | > 10 | -5 | – | – | – | – | – |
| O=C1/C(=C/c2cccc(OCCCCCCOc3ccc(Cl)cc3)c2)N=C2SCCCN12 | – | – | > 10 | – | > 10 | 12 | -15 | > 10 | > 10 | -37 | 0.65 | 122 | > 10 | 37 | – | – | – | 0.626 | 6.2 |
| O=C1NC(SCc2ccc(Br)cc2)=N/C1=C\c1cccc(OCc2ccc(Cl)cc2)c1 | – | – | > 10 | 31 | > 10 | 36 | 13 | > 10 | > 10 | -11 | 2.29 | 44 | > 10 | 36 | – | – | – | – | – |
| O=C1/C(=C/c2cccc(OCCCCOc3ccc(Cl)cc3)c2)N=C2SCCCN12 | – | – | > 10 | – | > 10 | 3 | 11 | > 10 | > 10 | -16 | 2.38 | 116 | > 10 | 26 | – | – | – | – | – |
